The structures appear in SMILES notation.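 Five concentrations, 48 hours, 96-well plates. The concentration for 50% growth inhibition is given as GI50.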 The source made the active and inactive calls. Rule as the data show it: active = GI50 up to about 1.1 µM and inactive = higher. Some results are limits rather than exact numbers.

Experimental findings from ChEMBL document CHEMBL1201862, “PubChem BioAssay data set” (2004) are described below.

Among the test systems are SW-620; A549; HCT-15; RXF 393; SF-268; UO-31; HCC 2998; OVCAR-8; U-251; ACHN; SK-MEL-5; RPMI-8226; OVCAR-5; NCI-H522; IGROV-1; SK-MEL-28; OVCAR-3; EKVX.
Common to all, as to test: growth of human tumour cells (NCI), 48 h

As for `S=c1sc2sc(=S)sc2s1`, the GI50 with SW-620 was > 100 µM (inactive); in the assay on A549, 31.6 µM (inactive); in the assay on HCT-15 it was 26.1 µM; with RXF 393, 35.6 µM (inactive); in the assay with SF-268, 43.1 µM (inactive); in the assay with UO-31, 30 µM (inactive). The GI50 with HCC 2998 was > 100 µM (inactive); in the assay on OVCAR-8, 50.1 µM (inactive); in the assay on U-251, 21 µM (inactive); with ACHN it was > 100 µM (inactive); with SK-MEL-5, > 100 µM (inactive); in the assay on RPMI-8226, 23.1 µM (inactive). The GI50 in the assay with OVCAR-5 is 20.9 µM (inactive); in the assay on NCI-H522 it was 33.1 µM (inactive); in the assay on IGROV-1 it was > 100 µM (inactive).

For the molecule `Cn1cc(C(=O)c2ccccc2)c2ccccc2c1=O`, the GI50 with SK-MEL-28 was > 100 µM (inactive); with SW-620, > 100 µM (inactive); in the assay with A549, > 100 µM (inactive); in the assay on HCT-15 it was greater than 100 µM; in the assay on RXF 393 it was > 100 µM (inactive); with SF-268, > 100 µM (inactive). In addition, the GI50 was > 100 µM (inactive) in the assay on HCC 2998; > 100 µM (inactive) in the assay on OVCAR-8; > 100 µM (inactive) with ACHN; > 100 µM (inactive) with OVCAR-3; > 100 µM (inactive) in the assay with SK-MEL-5; 94.2 µM (inactive) in the assay on RPMI-8226. Further, the GI50 with NCI-H522 was 34.4 µM (inactive); in the assay with EKVX it was > 100 µM (inactive); in the assay on IGROV-1, > 100 µM (inactive).

Regarding `Cc1cc2c(=O)c(C)n[nH]c2c(C#N)c1C`, the GI50 is > 100 µM (inactive) in the assay with SK-MEL-28; > 100 µM (inactive) in the assay on SW-620; > 100 µM (inactive) in the assay with A549; greater than 100 µM in the assay with HCT-15; > 100 µM (inactive) in the assay with RXF 393; > 100 µM (inactive) in the assay on SF-268. Further, the GI50 in the assay on UO-31, in the assay on HCC 2998, with OVCAR-8, with U-251, in the assay with ACHN and in the assay with OVCAR-3 was > 100 µM (inactive) in each case. For the same molecule, the GI50 with RPMI-8226, with OVCAR-5, with EKVX and in the assay on IGROV-1 was > 100 µM (inactive) in each case.

Take `C=C(C#N)C1OCC2OC(C)(C)OC21` (configuration not stated): the GI50 in the assay on SK-MEL-28 was 21.1 µM (inactive); with SW-620, 19 µM (inactive); with A549, 36 µM (inactive); with HCT-15, 16.9 µM; in the assay with RXF 393, 16.7 µM (inactive); with SF-268, 23.8 µM (inactive). Besides, the GI50 with UO-31 was 40.5 µM (inactive); with HCC 2998, 26.7 µM (inactive); with OVCAR-8, 21.5 µM (inactive); with U-251 it was 32.7 µM (inactive); with ACHN it was 20.7 µM (inactive); in the assay on OVCAR-3 it was 21.7 µM (inactive). Besides, the GI50 with SK-MEL-5 was 17.3 µM (inactive); with OVCAR-5, 19.8 µM (inactive); in the assay with EKVX, 24.4 µM (inactive); with IGROV-1, 37.4 µM (inactive).

Regarding `CC1=NN(C(=O)CC(=O)Nc2ccccc2F)C(=O)C1/N=N/c1ccccc1[N+](=O)[O-]` (configuration not stated), the GI50 is > 100 µM (inactive) in the assay on SK-MEL-28; > 100 µM (inactive) in the assay on SW-620; 64.7 µM (inactive) in the assay with A549; greater than 100 µM with HCT-15; 45.1 µM (inactive) with RXF 393; > 100 µM (inactive) in the assay with SF-268. Further, the GI50 in the assay on UO-31 is 81.1 µM (inactive); in the assay with OVCAR-8, 58.5 µM (inactive); in the assay with U-251, > 100 µM (inactive); with OVCAR-3, 96.4 µM (inactive); in the assay with SK-MEL-5, 17.9 µM (inactive); in the assay with RPMI-8226, > 100 µM (inactive). For the same molecule, the GI50 was > 100 µM (inactive) in the assay with OVCAR-5, 51.8 µM (inactive) with NCI-H522, 26.5 µM (inactive) with EKVX and > 100 µM (inactive) with IGROV-1.

For `C=C1CN2CCc3c([nH]c4ccccc34)C2CC1CC(=O)N(C)C` (configuration not stated), the GI50 in the assay with SK-MEL-28 was > 309 µM (inactive); in the assay on SW-620 it was > 309 µM (inactive); in the assay with A549, > 309 µM (inactive); in the assay with HCT-15 it was greater than 309 µM; in the assay on RXF 393, > 309 µM (inactive); in the assay with SF-268, > 309 µM (inactive). Moreover, the GI50 in the assay on HCC 2998, with OVCAR-8, in the assay on U-251, in the assay on ACHN, with OVCAR-3 and in the assay on SK-MEL-5 was > 309 µM (inactive) in each case. For the same molecule, the GI50 in the assay on RPMI-8226, in the assay with NCI-H522, in the assay with EKVX and with IGROV-1 was > 309 µM (inactive) throughout.

Turning to `O=C(O)CC12C3C4C5C3C1C5C42` (configuration not stated), the GI50 in the assay on SK-MEL-28 was > 100 µM (inactive); with SW-620 it was > 100 µM (inactive); in the assay with A549, > 100 µM (inactive); with HCT-15, greater than 100 µM; with SF-268, > 100 µM (inactive); in the assay with UO-31, 68.9 µM (inactive). The GI50 in the assay on HCC 2998, in the assay with OVCAR-8, with U-251, in the assay on ACHN, with OVCAR-3 and with SK-MEL-5 was > 100 µM (inactive) throughout. Also, the GI50 in the assay on RPMI-8226, in the assay on OVCAR-5, in the assay with NCI-H522, with EKVX and in the assay on IGROV-1 was > 100 µM (inactive) each time.

For `CC(=O)OC1COC(n2ccc3cc(Br)c([N+](=O)[O-])cc32)C(OC(C)=O)C1OC(C)=O` (configuration not stated), the GI50 was 27.4 µM (inactive) with SK-MEL-28; 39.5 µM (inactive) with SW-620; 27.8 µM (inactive) with A549; 30.9 µM in the assay with HCT-15; 24.7 µM (inactive) with RXF 393; 33.4 µM (inactive) in the assay with SF-268. Besides, the GI50 in the assay on UO-31 is 12.6 µM (inactive); in the assay with HCC 2998, 24 µM (inactive); with OVCAR-8, 22.4 µM (inactive); in the assay with U-251, 19.5 µM (inactive); with ACHN, 27.6 µM (inactive); in the assay with OVCAR-3 it was 23.8 µM (inactive). Besides, the GI50 with SK-MEL-5 is > 10 µM (inactive); in the assay on RPMI-8226 it was 22.5 µM (inactive); with NCI-H522, > 10 µM (inactive); with EKVX, 39.4 µM (inactive); with IGROV-1, 30.3 µM (inactive).

For `C[C@H]1C[C@@H]2[C@H]([C@@H](O)C[C@@]3(C)[C@H]2CC[C@]3(O)C(=O)CO)[C@@]2(C)C=CC(=O)C=C12` [METHYLPREDNISOLONE], the GI50 with SK-MEL-28 was > 100 µM (inactive); with SW-620, > 100 µM (inactive); with A549, > 100 µM (inactive); in the assay with HCT-15 it was greater than 100 µM; with UO-31 it was > 100 µM (inactive); in the assay on HCC 2998, > 100 µM (inactive). The GI50 in the assay on OVCAR-8, with ACHN, in the assay on OVCAR-3, in the assay with SK-MEL-5, in the assay with RPMI-8226 and with OVCAR-5 was > 100 µM (inactive) throughout. For the same molecule, the GI50 with NCI-H522 and in the assay on IGROV-1 was > 100 µM (inactive) throughout.
